Where two headings read alike, the source gives them in different places.
Tests used:
[1] = molecular target: human recombinant dopamine D2 short receptor (Homo sapiens, UniProt P14416); assay: Dopamine D2 receptor binding, [3H]7-OH-DPAT displacement; details: for inhibition at 0.1 µM: read-out: D2 % inhibition
[2] = molecular target: human recombinant dopamine D1 receptor (Homo sapiens, UniProt P21728); assay: Dopamine D1 receptor binding, [3H]SCH 23390 displacement; details: for inhibition at 0.1 µM: read-out: D1 % inhibition
[3] = molecular target: T1, human full-length recombinant serotonin 5-HT2A receptors (Homo sapiens, UniProt P28223); assay: biochemical; assay type: binding; details: for inhibition at 0.1 µM: read-out: 5-HT2A % inhibition
T1 construct: human full-length recombinant serotonin 5-HT2A receptors expressed in HEK-293E cells

[4] = molecular target: T2, human recombinant 5-HT transporter (SERT) (Homo sapiens, UniProt P31645); assay: biochemical; assay type: binding; details: read-out: SERT % inhibition
T2 construct: host or cells: CHO-S / SERT (h), cell membrane homogenates

[5] = inhibition at 100 nM, NI = no inhibition

T1 sequence (P28223 whole entry): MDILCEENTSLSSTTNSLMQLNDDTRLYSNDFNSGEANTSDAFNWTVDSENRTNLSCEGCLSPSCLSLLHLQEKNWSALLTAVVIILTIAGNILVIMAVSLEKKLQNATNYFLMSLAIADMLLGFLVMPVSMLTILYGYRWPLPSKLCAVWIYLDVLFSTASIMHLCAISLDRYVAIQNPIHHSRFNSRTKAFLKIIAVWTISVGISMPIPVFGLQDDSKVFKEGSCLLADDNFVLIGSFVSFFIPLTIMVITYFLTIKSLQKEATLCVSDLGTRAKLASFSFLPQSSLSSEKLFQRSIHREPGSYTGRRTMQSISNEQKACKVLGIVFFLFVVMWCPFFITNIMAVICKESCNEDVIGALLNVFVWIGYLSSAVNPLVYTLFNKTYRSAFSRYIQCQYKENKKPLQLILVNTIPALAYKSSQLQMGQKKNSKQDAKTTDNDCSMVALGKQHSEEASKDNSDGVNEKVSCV
human recombinant dopamine D2 short receptor, sequence (P14416 1-414 isoform P14416-2): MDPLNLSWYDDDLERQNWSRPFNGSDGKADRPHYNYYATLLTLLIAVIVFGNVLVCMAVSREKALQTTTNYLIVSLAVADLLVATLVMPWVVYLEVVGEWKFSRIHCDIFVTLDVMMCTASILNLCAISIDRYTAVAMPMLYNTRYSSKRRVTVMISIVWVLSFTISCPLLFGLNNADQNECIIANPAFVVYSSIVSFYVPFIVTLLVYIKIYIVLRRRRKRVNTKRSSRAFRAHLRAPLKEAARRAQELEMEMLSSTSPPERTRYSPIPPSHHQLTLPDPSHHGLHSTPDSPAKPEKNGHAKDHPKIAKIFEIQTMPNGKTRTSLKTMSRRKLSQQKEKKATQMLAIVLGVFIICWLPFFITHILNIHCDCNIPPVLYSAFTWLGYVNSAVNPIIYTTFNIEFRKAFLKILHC
T2 sequence (P31645 whole entry): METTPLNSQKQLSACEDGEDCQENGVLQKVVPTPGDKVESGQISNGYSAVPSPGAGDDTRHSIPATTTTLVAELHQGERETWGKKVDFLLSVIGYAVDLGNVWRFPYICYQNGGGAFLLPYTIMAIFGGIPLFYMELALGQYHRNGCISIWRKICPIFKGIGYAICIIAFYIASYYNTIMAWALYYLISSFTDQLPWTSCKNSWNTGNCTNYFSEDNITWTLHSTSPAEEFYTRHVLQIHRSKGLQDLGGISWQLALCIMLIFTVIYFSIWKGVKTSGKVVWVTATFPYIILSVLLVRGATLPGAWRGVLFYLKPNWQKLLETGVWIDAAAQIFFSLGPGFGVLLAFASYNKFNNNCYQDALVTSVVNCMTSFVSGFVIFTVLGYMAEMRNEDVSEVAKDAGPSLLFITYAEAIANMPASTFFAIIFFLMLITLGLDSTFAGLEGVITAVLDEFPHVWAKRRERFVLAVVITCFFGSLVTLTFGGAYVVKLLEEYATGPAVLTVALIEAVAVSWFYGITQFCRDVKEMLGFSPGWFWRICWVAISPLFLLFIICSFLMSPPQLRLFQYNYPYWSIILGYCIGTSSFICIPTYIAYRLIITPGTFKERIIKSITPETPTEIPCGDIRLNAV
human recombinant dopamine D1 receptor, sequence (P21728 whole entry): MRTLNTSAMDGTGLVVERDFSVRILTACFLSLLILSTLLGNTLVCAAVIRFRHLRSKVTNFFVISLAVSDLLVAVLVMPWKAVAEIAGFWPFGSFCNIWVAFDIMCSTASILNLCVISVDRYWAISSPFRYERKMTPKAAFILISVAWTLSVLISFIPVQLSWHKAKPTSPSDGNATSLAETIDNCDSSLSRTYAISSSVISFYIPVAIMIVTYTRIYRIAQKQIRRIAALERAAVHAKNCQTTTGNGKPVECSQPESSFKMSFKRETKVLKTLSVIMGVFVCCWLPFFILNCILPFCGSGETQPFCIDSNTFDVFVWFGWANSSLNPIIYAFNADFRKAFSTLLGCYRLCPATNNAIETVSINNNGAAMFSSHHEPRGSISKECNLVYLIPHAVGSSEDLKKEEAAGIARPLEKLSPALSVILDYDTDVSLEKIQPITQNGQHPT

O=C1CN2c3c(cccc3[C@@H]3CN(CCCOc4ccc(OCc5ccccc5)cc4)CC[C@@H]32)N1 [compound 35, (6bR,10aS)-8-(3-(4-(Benzyloxy)phenoxy)propyl)-6b,7,8,9,10,10a-hexahydro-1H-pyrido[3′,4′:4,5]-pyrrolo[1,2,3-de]quinoxalin-2(3H)-one]
inhibition at 0.1 µM [1, 5]: 23% | inhibition at 0.1 µM [2, 5]: 4.6% | inhibition at 0.1 µM [3]: 76% | inhibition at 0.1 µM [4]: 68%

CCCCN1CC[C@H]2[C@@H](C1)c1cccc3c1N2CC(=O)N3 [compound 21, (6bR,10aS)-8-Butyl-6b,7,8,9,10,10a-hexahydro-1H-pyrido[3′,4′:4,5]pyrrolo[1,2,3-de]quinoxalin-2(3H)-one]
inhibition at 0.1 µM [1, 5]: 15% | inhibition at 0.1 µM [2, 5]: < 0% | inhibition at 0.1 µM [3]: < 0% | inhibition at 0.2 µM [4]: < 0%

O=C1CN2c3c(cccc3[C@@H]3CN(CCCS(=O)(=O)c4ccc(F)cc4)CC[C@@H]32)N1 [compound 46, (6bR,10aS)-8-(3-((4-Fluorophenyl)sulfonyl)propyl)-6b,7,8,9,10,10a-hexahydro-1H-pyrido[3′,4′:4,5]-pyrrolo-[1,2,3-de]quinoxalin-2(3H)-one]
inhibition at 0.1 µM [1, 5]: < 0% | inhibition at 0.1 µM [2, 5]: < 0% | inhibition at 0.1 µM [3]: 33% | inhibition at 0.2 µM [4]: < 0%

CN(CCCN1CC[C@H]2[C@@H](C1)c1cccc3c1N2CC(=O)N3)c1ccc(F)cc1 [compound 48, (6bR,10aS)-8-(3-((4-Fluorophenyl)(methyl)amino)propyl)-6b,7,8,9,10,10a-hexahydro-1H-pyrido[3′,4′:4,5]pyrrolo[1,2,3-de]quinoxalin-2(3H)-one]
inhibition at 0.1 µM [1, 5]: 14% | inhibition at 0.1 µM [2, 5]: 21% | inhibition at 0.1 µM [3]: 76% | inhibition at 0.2 µM [4]: 53%

O=C1CN2c3c(cccc3[C@@H]3CN(CCOc4ccc(F)cc4)CC[C@@H]32)N1 [compound 49, (6bR,10aS)-8-(2-(4-Fluorophenoxy)ethyl)-6b,7,8,9,10,10a-hexahydro-1H-pyrido[3′,4′:4,5]pyrrolo[1,2,3-de]quinoxalin-2(3H)-one]
inhibition at 0.1 µM [1, 5]: 24% | inhibition at 0.1 µM [2, 5]: 10% | inhibition at 0.1 µM [3]: 48% | inhibition at 0.1 µM [4]: < 0%

O=C1CN2c3c(cccc3[C@@H]3CN(CCCOc4ccc5c(c4)OCO5)CC[C@@H]32)N1 [compound 28, (6bR,10aS)-8-(3-(Benzo[d][1,3]dioxol-5-yloxy)propyl)-6b,7,8,9,10,10a-hexahydro-1H-pyrido[3′,4′:4,5]-pyrrolo[1,2,3-de]quinoxalin-2(3H)-one]
inhibition at 0.1 µM [2, 5]: < 0% | inhibition at 0.1 µM [3]: < 0%

O=C1CN2c3c(cccc3[C@@H]3CN(CCCO)CC[C@@H]32)N1 [compound 22, (6bR,10aS)-8-(3-Hydroxypropyl)-6b,7,8,9,10,10a-hexahydro-1H-pyrido[3′,4′:4,5]pyrrolo[1,2,3-de]quinoxalin-2(3H)-one]
inhibition at 0.1 µM [1, 5]: < 0% | inhibition at 0.1 µM [2, 5]: < 0% | inhibition at 0.1 µM [3]: 8% | inhibition at 0.2 µM [4]: < 0%

O=C1CN2c3c(cccc3[C@@H]3CN(CCCc4noc5cc(F)ccc45)CC[C@@H]32)N1 [compound 26, (6bR,10aS)-8-(3-(6-Fluorobenzo[d]isoxazol-3-yl)propyl)-6b,7,8,9,10,10a-hexahydro-1H-pyrido[3′,4′:4,5]-pyrrolo[1,2,3-de]quinoxalin-2(3H)-one]
Ki [1]: 84 nM | fold weaker affinity to dopamine D2 receptors [1]: over 5 fold | Ki [2]: 13 nM | Ki [3]: 3.1 nM

O=C1CN2c3c(cccc3[C@@H]3CN(CCCCOc4ccc(F)cc4)CC[C@@H]32)N1 [compound 50, (6bR,10aS)-8-(4-(4-Fluorophenoxy)butyl)-6b,7,8,9,10,10a-hexahydro-1H-pyrido[3′,4′:4,5]pyrrolo[1,2,3-de]quinoxalin-2(3H)-one]
inhibition at 0.1 µM [1, 5]: 27% | inhibition at 0.1 µM [2, 5]: 5.4% | inhibition at 0.1 µM [3]: 37% | inhibition at 0.1 µM [4]: < 0%

O=C1CN2c3c(cccc3[C@@H]3CN(CCCOc4ccccc4F)CC[C@@H]32)N1 [compound 36, (6bR,10aS)-8-(3-(2-Fluorophenoxy)propyl)-6b,7,8,9,10,10a-hexahydro-1H-pyrido[3′,4′:4,5]pyrrolo[1,2,3-de]quinoxalin-2(3H)-one]
inhibition at 0.1 µM [1, 5]: 28% | inhibition at 0.1 µM [2, 5]: 18% | inhibition at 0.1 µM [3]: 87% | inhibition at 0.1 µM [4]: 5.1%

Cc1ccc(OCCCN2CC[C@H]3[C@@H](C2)c2cccc4c2N3CC(=O)N4)cc1 [compound 32, (6bR,10aS)-8-(3-(p-Tolyloxy)propyl)-6b,7,8,9,10,10a-hexahydro-1H-pyrido[3′,4′:4,5]pyrrolo[1,2,3-de]-quinoxalin-2(3H)-one]
inhibition at 0.1 µM [1, 5]: 20% | inhibition at 0.1 µM [2, 5]: 13% | inhibition at 0.1 µM [3]: 62% | inhibition at 0.1 µM [4]: 9.6%

NC(=O)c1cc(F)ccc1OCCCN1CC[C@H]2[C@@H](C1)c1cccc3c1N2CC(=O)N3 [compound 38, 5-Fluoro-2-(3-((6bR,10aS)-2-oxo-2,3,6b,9,10,10a-hexahydro-1H-pyrido[3′,4′:4,5]pyrrolo[1,2,3-de]quinoxalin-8(7H)-yl)propoxy)benzamide]
inhibition at 0.1 µM [1, 5]: < 0% | inhibition at 0.1 µM [2, 5]: < 0% | inhibition at 0.1 µM [3]: 14% | inhibition at 0.1 µM [4]: 9.6%

O=C1CN2c3c(cccc3[C@@H]3CN(CCCOc4ccc(O)cc4)CC[C@@H]32)N1 [compound 33, (6bR,10aS)-8-(3-(4-Hydroxyphenoxy)propyl)-6b,7,8,9,10,10a-hexahydro-1H-pyrido[3′,4′:4,5]pyrrolo-[1,2,3-de]quinoxalin-2(3H)-one]
inhibition at 0.1 µM [1, 5]: 41% | inhibition at 0.1 µM [2, 5]: < 0% | inhibition at 0.1 µM [3]: 77% | inhibition at 0.1 µM [4]: 11%

O=C1CN2c3c(cccc3[C@H]3CN(CCCOc4ccc(F)cc4)CC[C@H]32)N1 [compound 54, (6bS,10aR)-8-(3-(4-Fluorophenoxy)propyl)-6b,7,8,9,10,10a-hexahydro-1H-pyrido[3′,4′:4,5]pyrrolo[1,2,3-de]quinoxalin-2(3H)-one]
D1(Ki or (% Inhibition)): % inhibition [2]: 75 (50%) | inhibition at 0.1 µM [2]: 50% | inhibition at 0.1 µM [4]: < 0%

O=C1CN2c3c(cccc3[C@@H]3CN(CCCOc4ccccc4)CC[C@@H]32)N1 [compound 23, (6bR,10aS)-8-(3-Phenoxypropyl)-6b,7,8,9,10,10a-hexahydro-1H-pyrido[3′,4′:4,5]-pyrrolo[1,2,3-de]quinoxalin-2(3H)-one]
inhibition at 0.1 µM [1]: 34% | inhibition at 0.1 µM [2]: 24% | Ki [3]: 2.8 nM | inhibition at 0.1 µM [3]: 84% | inhibition at 0.2 µM [4]: 8%

O=C1CN2c3c(cccc3[C@@H]3CN(CCCOc4ccc(F)cc4)CC[C@H]32)N1 (racemic) [compound 20, (±)-(trans)-8-(3-(4-Fluorophenoxy)propyl)-6b,7,8,9,10,10a-hexahydro-1H-pyrido[3′,4′:4,5]pyrrolo[1,2,3-de]quinoxalin-2(3H)-one]
D1(Ki or (% Inhibition)): % inhibition [2]: 5.6 (79%) | inhibition at 0.1 µM [2]: 79% | inhibition at 0.1 µM [4]: < 0%

COc1ccc(OCCCN2CC[C@H]3[C@@H](C2)c2cccc4c2N3CC(=O)N4)cc1 [compound 34, (6bR,10aS)-8-(3-(4-Methoxyphenoxy)propyl)-6b,7,8,9,10,10a-hexahydro-1H-pyrido[3′,4′:4,5]pyrrolo-[1,2,3-de]quinoxalin-2(3H)-one]
inhibition at 0.1 µM [2, 5]: < 0% | inhibition at 0.1 µM [3]: < 0% | inhibition at 0.1 µM [4]: 10%
